In patent US12281104B2, “Process for the production of ethyl 3-amino-1-[(3R,4S)-4-cyanotetrahydropyran-3-yl]pyrazole-4-carboxylate through chiral separation of a racemic mixture” (Intervet Inc., priority 2019, dated 2025):
Values after ≈ are worked out from the molar mass of the structure shown. Read-outs that look alike come from different tables or passages of the source.

Test: Solubility of Compound (V) in water and organic solvents
Format: physicochemical
Details: for solubility: read-out: Concentration in pure solvents (solubility)
Method: Example 1 Solubility of Compound (V) in Organic Solvents
The solubility of Compound (V) in water and in a set of organic solvents was determined.

Solubility in words (acetonitrile): highly soluble | solubility (acetonitrile (pure solvent), organic solvent or mixture): > 200000 µg/mL | solubility (ethanol (pure solvent), organic solvent or mixture, EtOH): 10000 µg/mL (≈ 37.8 mM) | solubility (isopropanol (pure solvent), organic solvent or mixture, iPrOH): < 5000 µg/mL | solubility (methanol (pure solvent), organic solvent or mixture, MeOH): < 50000 µg/mL | solubility (water (pure solvent), water): < 5000 µg/mL
SMILES: CCOC(=O)c1cn([C@H]2COCC[C@@H]2C#N)nc1N (racemic) [Compound (V), ethyl 3-amino-1-[(3R,4S)-4-cyanotetrahydropyran-3-yl]pyrazole-4-carboxylate and ethyl 3-amino-1-[(3S,4R)-4-cyanotetrahydropyran-3-yl]pyrazole-4-carboxylate]
